{
  "source": "patent US20250361217A1",
  "about": "“FATTY ACID COMPOUNDS” (University of Pittsburgh - Of the Commonwealth System of …, priority 2022, published 2025)",
  "key": {"[1]": {"system": "C57BL6 mice fed with the NASH diet", "assay": "Oral treatment in established NASH mouse model", "type": "in vivo", "details": "oral 10 mg/kg/day, 6 weeks", "description": "This study defined the protective properties of branched FA-AA conjugates and the enhanced potency of 11U3-2M conjugated to Leucine (Leu) when administered orally in an established NASH mouse model. C57BL6 mice were fed with the NASH diet for 16 weeks and then orally administered with vehicle (n=10), C18:1-Leu (n=10), C18:1-2M-Leu (n=8) and 11U3-2M-Leu (n=12) (10 mg/kg/day) for 6 weeks while on the NASH diet. Mice were sacrificed and organs were collected for further analysis."}, "[2]": {"system": "mice with established NASH", "details": "intraperitoneal administration; cited from earlier work"}, "[3]": {"assay": "Cassette PK of branched vs straight-chain FA-AA (NAA) conjugates, oral or intraperitoneal", "type": "in vivo, mice", "details": "30 mg/kg; for levels in liver, rank among the groups / levels in plasma, rank among the groups: both intraperitoneal and oral administration", "description": "A library of branched fatty acid-amino acid (FA-AA) conjugates was synthesized, exemplified in the table above. […] The absorption of the selected straight chain vs. branched FA-AA conjugates was compared in a cassette PK study as described below in more detail. A mixture of all the FA-AA conjugates (with or without branching) was concomitantly administered orally to mice (n=4-5, 30 mg/kg each compound). […] The absorption improvement resulting from the branching of the fatty acids was ubiquitous across all the FA-AA conjugates independent of the choice of amino acids. In contrast, all tested FA-AA conjugated dosed intraperitoneally (n=4-5, 30 mg/kg each compound) reached significant levels in circulation, bypassing the first-pass metabolism.\nTwo cassette PK experiments were performed to compare the pharmacokinetics of dimethyl acyl amino acids (acyl-2M-amino acids) with their natural, non-branched analogs and evaluate the increased half-life, oral bioavailability, and liver concentrations obtained by the invention (introduction of the dimethyl (2M) branching).\nGroups of mice (n=4 per time point per group) were used. The compounds were delivered using a cassette pharmacokinetic design by oral gavage or by intraperitoneal injections at a dose of 30 mg/kg. Groups are detailed in table 1. To note, the methyl ester of C18:0-2M-Gly was abbreviated as C18:0-2M-Gly-Me.\nThe following groups were used, and the time points were 0, 1, 2, and 4 h for intraperitoneal administration and 0, 2, and 4 h for oral administration."}},
  "data": [
    {"smiles": "CCCCCCCCC=CCCCCCCC(C)(C)C(=O)N[C@@H](CC(C)C)C(=O)O", "note": "[C18:1-2M-Leu, (2,2-dimethyloctadec-9-enoyl)leucine]", "values": [
      {"measurement": "expression of genes regulating lipogenesis in liver", "setting": "[1]", "value": "suppressed"},
      {"measurement": "fibrosis and cell death genes (e.g., collagens and TGF-b) in liver", "setting": "[1]", "value": "anti-fibrotic actions"},
      {"measurement": "plasma alanine transaminase (ALT)", "setting": "[1]", "value": "significantly decreased"},
      {"measurement": "plasma aspartate transaminase (AST)", "setting": "[1]", "value": "significantly decreased"}
    ]},
    {"smiles": "CCCCCCCC/C=C\\CCCCCCCC(=O)N[C@@H](CC(C)C)C(=O)O", "note": "[C18:1-Leu, N-oleoyl leucine]", "values": [
      {"measurement": "steatosis, inflammation and fibrosis in mice with established NASH", "setting": "[2]", "value": "improved steatosis, and lowered inflammation and fibrosis"}
    ]},
    {"smiles": "CCCc1ccc(CCCCCCCCCC(C)(C)C(=O)NCC(=O)O)o1", "note": "[11U3-2M-Gly, (2,2-Dimethyl-11-(5-propylfuran-2-yl)undecanoyl)glycine]", "values": [
      {"measurement": "levels in liver, rank among the groups", "setting": "[3]", "value": "highest levels"},
      {"measurement": "levels in plasma, rank among the groups", "setting": "[3]", "value": "highest levels"}
    ]},
    {"smiles": "CCCc1ccc(CCCCCCCCCC(C)(C)C(=O)NC(CC(C)C)C(=O)O)o1", "note": "(stereo not shown) [11U3-2M-Leu]", "values": [
      {"measurement": "cholesterol levels", "setting": "[1]", "value": "significantly decreased"},
      {"measurement": "expression of genes regulating lipogenesis in liver", "setting": "[1]", "value": "suppressed"},
      {"measurement": "expression of key genes regulating fatty acid oxidation (PPARα signaling pathway) in liver", "setting": "[1]", "value": "significantly induced"},
      {"measurement": "fibrosis and cell death genes (e.g., collagens and TGF-b) in liver", "setting": "[1]", "value": "anti-fibrotic actions"},
      {"measurement": "inflammatory effect in the NASH animals (FIG. 23)", "setting": "[1]", "value": "anti-inflammatory"},
      {"measurement": "liver weight in comparison to vehicle control", "setting": "[1]", "value": "significant decrease"},
      {"measurement": "liver/body weight ratio in comparison to vehicle control", "setting": "[1]", "value": "significant decrease"},
      {"measurement": "plasma alanine transaminase (ALT)", "setting": "[1]", "value": "significantly decreased"},
      {"measurement": "plasma aspartate transaminase (AST)", "setting": "[1]", "value": "significantly decreased"},
      {"measurement": "plasma concentration over time (resistance to metabolism) vs 11U3-Leu", "setting": "[3]; mice", "value": "maintained over a longer period"},
      {"measurement": "levels in liver, rank among the groups", "setting": "[3]", "value": "highest levels"},
      {"measurement": "levels in plasma, rank among the groups", "setting": "[3]", "value": "highest levels"},
      {"measurement": "AUC0-4 vs all the straight-chain analogs", "setting": "[3]; intraperitoneal", "value": "significantly higher"},
      {"measurement": "Cmax vs all the straight-chain analogs", "setting": "[3]; intraperitoneal", "value": "significantly higher"},
      {"measurement": "metabolism vs all the straight-chain analogs", "setting": "[3]; intraperitoneal", "value": "slower metabolism"}
    ]}
  ]
}
